# Measured values taken from US9873696B2, “Neprilysin inhibitors” (THERAVANCE BIOPHARMA R&D IP, LLC, priority 2010, dated 2018).
# Target: T1, human NEP (Homo sapiens, UniProt P08473)
# T1 construct: purchased R&D Systems, Minneapolis, Minn; 1182-ZN
# Test: In vitro enzyme inhibition assay at human NEP (Assay 1)
# Type: biochemical
# Details: recombinant enzyme, fluorogenic peptide substrate, 37° C.
# Method in brief: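 Recombinant enzyme preincubated with compound 30 min at 37 °C, then 10 μM Mca-D-Arg-Arg-Leu-Dap-(Dnp)-OH added in 50 mM HEPES pH 7.5, 100 mM NaCl, 0.01% Tween-20, 10 μM ZnSO4; stopped after 20 min with acetic acid. Fluorescence read at 320/405 nm; Ki from nonlinear fit of v=v0/[1+(I/K′)], reported as pKi.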
# T1 sequence (P08473 whole entry): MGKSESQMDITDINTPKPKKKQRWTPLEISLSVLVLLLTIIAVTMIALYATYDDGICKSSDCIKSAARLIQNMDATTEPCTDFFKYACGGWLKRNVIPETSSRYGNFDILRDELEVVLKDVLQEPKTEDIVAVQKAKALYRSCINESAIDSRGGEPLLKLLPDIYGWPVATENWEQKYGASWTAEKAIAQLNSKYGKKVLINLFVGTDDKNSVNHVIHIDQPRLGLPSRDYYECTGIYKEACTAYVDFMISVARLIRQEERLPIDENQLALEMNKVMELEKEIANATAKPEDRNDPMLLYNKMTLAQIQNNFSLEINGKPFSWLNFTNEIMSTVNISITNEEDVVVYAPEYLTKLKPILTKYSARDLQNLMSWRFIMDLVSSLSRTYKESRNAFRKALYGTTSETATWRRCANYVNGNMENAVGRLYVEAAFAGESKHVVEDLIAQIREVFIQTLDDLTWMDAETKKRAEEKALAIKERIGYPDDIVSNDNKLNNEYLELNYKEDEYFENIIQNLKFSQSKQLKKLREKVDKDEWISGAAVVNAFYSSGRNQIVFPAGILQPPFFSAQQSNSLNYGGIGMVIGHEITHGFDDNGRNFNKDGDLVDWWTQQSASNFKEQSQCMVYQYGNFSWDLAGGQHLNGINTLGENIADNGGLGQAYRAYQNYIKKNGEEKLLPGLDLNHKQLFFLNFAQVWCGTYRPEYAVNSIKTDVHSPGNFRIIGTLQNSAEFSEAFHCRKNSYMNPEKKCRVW
row,SMILES,Ki [nM]
1,"O=C(NN(Cc1ccc(-c2cc(Cl)ccc2Cl)cc1)C[C@@H](O)C(=O)O)c1cn(O)nn1 [Example 7A, (R)-3-[N-(2′,5′-Dichlorobiphenyl-4-ylmethyl)-N′-(1-hydroxy-H-[1,2,3]triazole-4-carbonyl)-hydrazino]-2-hydroxypropionic Acid]",≤ 1
2,"Cc1ccc(Cl)cc1-c1ccc(CN(C[C@@H](O)C(=O)O)NC(=O)c2cc(O)no2)cc1 [Example 8-1, (R)-3-[N-(5′-Chloro-2′-methyl-biphenyl-4-ylmethyl)-N′-(3-hydroxy-isoxazole-5-carbonyl)-hydrazino]-2-hydroxy-propionic acid]",≤ 1
3,"COc1ccc(Cl)cc1-c1ccc(CN(C[C@@H](O)C(=O)O)NC(=O)c2cc(O)no2)cc1 [Example 8-2, (R)-3-[N-(5′-Chloro-2′-methoxy-biphenyl-4-ylmethyl)-N′-(3-hydroxy-isoxazole-5-carbonyl)-hydrazino]-2-hydroxy-propionic acid]",≤ 1
4,"COc1ccc(F)cc1-c1ccc(CN(C[C@@H](O)C(=O)O)NC(=O)c2cc(O)no2)cc1 [Example 8-4, (R)-3-[N-(5′-Fluoro-2′-methoxy-biphenyl-4-ylmethyl)-N′-(3-hydroxy-isoxazole-5-carbonyl)-hydrazino]-2-hydroxy-propionic acid]",1.26 to 10
5,"O=C(NN(Cc1ccc(-c2cc(F)ccc2O)cc1)C[C@H](O)C(=O)O)c1cc(O)no1 [Example 8-5, (S)-3-[N-(5′-Fluoro-2′-hydroxy-biphenyl-4-ylmethyl)-N′-(3-hydroxy-isoxazole-5-carbonyl)-hydrazino]-2-hydroxy-propionic acid]",1.26 to 10
6,"O=C(NN(Cc1ccc(-c2cc(Cl)ccc2O)cc1)C[C@H](O)C(=O)O)c1cc(O)no1 [Example 8-6, (S)-3-[N-(5′-Chloro-2′-hydroxy-biphenyl-4-ylmethyl)-N′-(3-hydroxy-isoxazole-5-carbonyl)-hydrazino]-2-hydroxy-propionic acid]",1.26 to 10
7,"O=C(NN(Cc1ccc(-c2cccc(Cl)c2O)cc1)C[C@@H](O)C(=O)O)c1cc(O)no1 [Example 8-7, (R)-3-[N-(3′-Chloro-2′-hydroxy-biphenyl-4-ylmethyl)-N′-(3-hydroxy-isoxazole-5-carbonyl)-hydrazino]-2-hydroxy-propionic acid]",1.26 to 10
8,"O=C(NN(Cc1ccc(-c2cc(Cl)ccc2F)cc1)C[C@@H](O)C(=O)O)c1cc(O)no1 [Example 8-8, (R)-3-[N-(5′-Chloro-2′-fluoro-biphenyl-4-ylmethyl)-N′-(3-hydroxy-isoxazole-5-carbonyl)-hydrazino]-2-hydroxy-propionic acid]",≤ 1
9,"COc1cc(C(=O)NN(Cc2ccc(-c3cc(Cl)ccc3F)cc2)C[C@@H](O)C(=O)O)on1 [Example 8-9, (R)-3-[N-(5′-Chloro-2′-fluoro-biphenyl-4-ylmethyl)-N′-(3-methoxy-isoxazole-5-carbonyl)-hydrazino]-2-hydroxy-propionic acid]",≤ 1
10,"O=C(NN(Cc1ccc(-c2cc(Cl)ccc2F)cc1)C[C@@H](O)C(=O)O)c1cc(-c2cccc(F)c2)no1 [Example 8-13, (R)-3-{N-(5′-Chloro-2′-fluoro-biphenyl-4-ylmethyl)-N′-[3-(3-fluoro-phenyl)-isoxazole-5-carbonyl]-hydrazino}-2-hydroxy-propionic acid]",≤ 1
11,"CCc1cc(C(=O)NN(Cc2ccc(-c3cc(Cl)ccc3F)cc2)C[C@@H](O)C(=O)O)on1 [Example 8-14, (R)-3-[N-(5′-Chloro-2′-fluoro-biphenyl-4-ylmethyl)-N′-(3-ethyl-isoxazole-5-carbonyl)-hydrazino]-2-hydroxy-propionic acid]",≤ 1
12,"COc1ccccc1-c1cc(C(=O)NN(Cc2ccc(-c3cc(Cl)ccc3F)cc2)C[C@@H](O)C(=O)O)on1 [Example 8-15, (R)-3-{N-(5′-Chloro-2′-fluoro-biphenyl-4-ylmethyl)-N′-[3-(2-methoxy-phenyl)-isoxazole-5-carbonyl]-hydrazino}-2-hydroxy-propionic acid]",≤ 1
